This passage reports IC50 results from BindingDB's records for doi:10.1021/jm00095a011 (Centre De Recherche De Vitry-Alfortville, 1992).

A short description of the first assay: Capability of compound to inhibit the binding of [3H]LTB4 to guinea pig spleen Leukotriene B4 receptor at the concentration of 10e-5 M.
Usually IC50 stands for the midpoint of a concentration-inhibition curve. Regarding `Cc1cc(CCCc2ccccc2)c(CCCCCC(C)(C)C(=O)O)s1`, the 50% inhibitory concentration (IC50) was 200 nM.

The nature of another assay: Capability to inhibit the binding of [3H]LTB4 to guinea pig spleen Leukotriene B4 receptor at the concentration of 10e-5 M.
For `O=C(O)CCCCCCc1csc(CCCc2ccc(O)cc2)c1`, the IC50 is 5000 nM.
On the same count and under the same terms, in the case of `CC(CCCCCc1sccc1CCCc1ccccc1)C(=O)O` (stereo not drawn) it was 110 nM; in that of `O=C(O)CCCCc1sccc1CCCc1ccccc1`, 3500 nM.
Still for that read-out and setting: in the case of `CC(C)(CCCCCc1cc(-c2ccccc2)sc1CCCc1ccccc1)C(=O)O` it was 1200 nM.
Still for that read-out and setting: the value for `Cc1cc(CCCCCC(C)C(=O)O)c(CCCc2ccccc2)s1` (stereo not drawn) was 300 nM; that for `O=C(O)CCCCCCc1sccc1CCCc1ccccc1` was 1000 nM; that for `O=C(O)CCCCCCc1csc(CCc2ccccc2)c1` was 10000 nM.
Turning to `O=C(O)CCCCCCc1sc(-c2ccccc2)cc1CCCc1ccccc1`, the IC50 stood at 1000 nM.
Still for that read-out and setting: in the case of `O=C(O)CCCCCC(O)c1sccc1CCCc1ccccc1` (stereo not drawn) it was 6000 nM.
The same measure, in the same setting: the value for `O=C(O)CCCCCCc1ccsc1CCCc1ccc(Cl)cc1` was 1000 nM; that for `Cc1cc(CCCc2ccccc2)c(SCCCCCC(=O)O)s1` was 3000 nM; that for `O=C(O)CCCCCCc1csc(CCCc2ccc(Cl)cc2)c1` was 1000 nM.
Still for that read-out and setting: in the case of `Cc1cc(CCCCCCC(=O)O)c(CCCc2ccccc2)s1` it was 700 nM; in that of `O=C(O)CCCCCCc1csc(Cc2ccccc2)c1`, 10000 nM.
Compound `Cc1cc(CCCc2ccccc2)c(CCCCCC(C)C(=O)O)s1` (stereo not drawn) came in with an IC50 of 300 nM.
The same measure, in the same setting: the value for `CC(C)(CCCCCc1sc(-c2ccccc2)cc1CCCc1ccccc1)C(=O)O` was 800 nM.

A short description of another assay: Capability of compound to inhibit the binding of [3H]LTB4 to guinea pig spleen Leukotriene B4 receptors at the concentration of 10e-5 M.
Take `O=C(O)CCCCCCc1ccsc1CCCc1ccccc1`: the concentration for half-maximal inhibition (IC50) was found to be 1000 nM. In other words, the single-digit micromolar range.
